Measured values published in paper PMC4001856 (Brain research, 2013).

Target: APP (amyloid precursor protein) (Homo sapiens, UniProt P05067)
Assay: SPR
Type: binding

Chain of APP (amyloid precursor protein) (P05067 230-624 isoform P05067-4): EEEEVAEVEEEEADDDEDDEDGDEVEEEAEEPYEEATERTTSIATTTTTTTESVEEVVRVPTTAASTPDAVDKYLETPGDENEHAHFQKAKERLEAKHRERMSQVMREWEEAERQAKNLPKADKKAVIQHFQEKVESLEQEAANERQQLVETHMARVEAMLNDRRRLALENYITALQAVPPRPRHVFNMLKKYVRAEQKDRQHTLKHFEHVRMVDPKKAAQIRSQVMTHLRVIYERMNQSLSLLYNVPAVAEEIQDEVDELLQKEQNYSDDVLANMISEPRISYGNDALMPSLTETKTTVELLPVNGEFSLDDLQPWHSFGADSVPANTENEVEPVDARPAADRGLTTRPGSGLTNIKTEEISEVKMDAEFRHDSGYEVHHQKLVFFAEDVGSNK

## CN1[C@@H]2CC[C@H]1C[C@@H](OC(=O)c1c[nH]c3ccccc13)C2 [tropisetron]
  Kd: 900 nM
